From patent publication US5439940A, “Benz[e]indene derivatives” (priority 1992, dated 1995)
Like-named read-outs stand apart in the source and are kept apart here.

Assays:
[1] = Acute toxicity on mice (oral LD50); settings: mouse, in vivo, 7 days observation, maximal dose 1000 mg/kg
Procedure: Mice belonging to the NMRI strain (body weight 20-25 g, both male and female) were used, 6 to 10 animals for each dose. The test compound was administered orally in a volume of 20 ml/kg. The applied maximal dose was 1000 mg/kg. […] The mice were kept in a plastic cage at room temperature. The animals got tap water and standard mouse fodder ad libitum. The toxicity data were determined by the aid of the method of Litchfield and Wilcoxon [Litchfield, J. T., Wilcoxon, F. W.: J. Pharmacol. Exp. Ther., 96, 99 (1949)].

pentetrazole spasm = assay: Anticonvulsive activity: pentetrazole spasm inhibiting test; type: in vivo, mouse (NMRI); settings: Mus musculus; mice, oral, 1 hour before pentetrazole 125 mg/kg i.p.; read-out: Inhibition of pentetrazole spasm, ED50
Procedure: The pentetrazole spasm inhibiting test was performed according to the modified method of Benziger and Hans. Groups of mice consisting of 6 animals each, belonging to the NMRI strain (body weight: 20-25 g), were treated orally with the compound to be tested and the vehicle without active agent, respectively. I hour after the treatment a dosage of 125 mg/kg of pentetrazole was administered to each animal, intraperitoneally, and the tonic spasm of the lower limb extensor was recorded [Benziger, R., Hans, D.: Arch. Int. Pharmacodyn., 167, 245 (1967)].
(§1) The ED50 values were determined according to the method of Litchfield and Wilcoxon.

nicotine spasm = assay: Anticonvulsive activity: inhibition of nicotine spasm and lethality; type: in vivo; settings: Mus musculus, 1 h; mice, oral, one hour before nicotine 1.4 mg/kg i.v.
Procedure: The inhibition of nicotine spasm and lethality was examined on mice according to the method of Stone. One hour after the oral treatment a dosage of 1.4 mg/kg of nicotine is injected intravenously, and the spasm developed as well as the lethality within 1 hour were recorded at both the test and control groups. [Stone, C. C., Mecklenburg, K. L., Torchiana, M. L.: Arch. Int. Pharmacodyn., 117, 419 (1958)].
as §1

[2] = system: experimental coronary insufficiency; assay: Antianginal effect (glanduitrine-induced coronary insufficiency, Nieschultz); type: in vivo, rat (male); settings: rat, glanduitrine 4 NE/kg i.v., T-wave; for inhibition in vivo at 2 mg/kg: Rat2, iv, read-out: Inhibition in a dose of 2 mg/kg; for ED50: iv
Procedure: The test was carried out on male rats weighing 180-220 g. The animals were narcotized with the aid of chloralose-urethane. ECG was registered by means of needle electrodes in standard II output. Antianginal effect was tested according to the method of Nieschultz. Experimental coronary insufficiency was induced by administering glanduitrine (4 NE/kg i.v.).

[3] = system: learned conditioned avoidance reflex; assay: Antipsychotic effect: inhibition of conditioned avoidance reflex (shuttle box); type: in vivo, rat (male Wistar); settings: 1 h, read-out: Conditioned reflex ID50
Procedure: The antipsychotic (neuroleptic) effect was measured by the inhibition of the learned conditioned avoidance reflex. The male Wistar rats used for the study were of 120-150 g bodyweight at the commencement of learning. […] In response to a suitable warning stimulus, in order to avoid the punishing (unconditioned) stimulus, animals within the box passed through the gate from one part over the other. The warning, i.e. conditioned stimulus (CS), a white light (1 Hz) blinking for 15 seconds, was applied at the place of the actual animal existence. The unconditioned stimulus (US), in form of 0.6 mA intensity electric shock, was randomly applied to the paw during the last 5 seconds of the conditioned stimulus. Animal's movement during the CS and US from one part of the box over the other, was defined as avoidance and escape responses, respectively. Both responses ceased the actual stimulus and stopped the trial. The time elapsed until the next trial (intertrial interval, ITI) was 15 seconds. While one experiment was carried out daily, an experiment consisted of 80 trials. Learning efficiency was expressed as percentage of the successful to the total avoidances. […] Dosing was carried out once a week, one hour before the measurement in the shuttle box.

catalepsy = assay: Catalepsy; type: in vivo, rat (Wistar); settings: rat; for Catalepsy MED: scored from 60 minutes after dosing, four hours
Procedure: The extrapyramidal syndrome, the most important side effect limiting the application of the neuroleptic drugs in man, can be produced in experimental animals in the form of catalepsy. Our experiments in 150-160 g Wistar rats were performed according to Morpurgo. The catalepsy, appearing 60 minutes after dosing, was scored as follows. Both forelegs of each animal were put for 10 seconds onto a rubber stopper of 3 cm height, then for additional 10 seconds onto a same stopper of 9 cm height. […] The procedure was repeated in each 30 minutes during four hours, obtaining scores proportional to the degree of the catalepsy. Results were used to calculate the minimum effective dose [MED, the lowest dose resulting statistically significant alteration, c.f.: Morpurgo, C.: Arch. Int.

nervus ischiadicus = assay: Local analgesic effect (Truant d'Amato); type: in vivo; settings: 0.2 ml injected around nervus ischiadicus
Procedure: The test was carried out according to the method of Truant d'Amato. 0.2 ml of test material was injected around the nervus ischiadicus in the middle of femur with a needle of 1 cm length. The criterion of analgesic effect was the lack of the motoric control of foot muscles. The duration of effect was registered and the 50 percentile effective concentration (EC50) was calculated on the basis of the dose-effect curve. Lidocain was used as reference substance Truant d'Amato, A. P., Wiedling, S.: Acta Chir. Scand., 116, 351 (1958)].

hexobarbital narcosis = assay: Hexobarbital narcosis potentiating effect on mice; type: in vivo, mouse; settings: oral; for ED50: Mus musculus, 1 hour before hexobarbital 40 mg/kg i.v., sleeping time >2.5 times control, read-out: ED50 hexobarbital narcosis potentiation
Procedure: The hexobarbital narcosis potentiating effect was examined on mice. Groups consisting of 6 animals were used for each dose. The animals were treated orally with the test compound, whereby sleeping was induced 1 hour later by administering a 40 mg/kg i.v. dose of hexobarbital both to the test and control groups. […] ED50 values were calculated from the thus-transformed data [Kaergaard Nielsen C. et al., Arch. Int. Pharmacodyn. 2, 170 (1967)].

spontaneous motility = assay: Spontaneous motility inhibiting activity (Dews equipment); type: in vivo; settings: Mus musculus, 0.5 h; oral, beam interruptions within 30 minutes; read-out: Motility inhibiting activity ID50
Procedure: The spontaneous motility inhibiting activity was examined according to the method of Borsy et al. Groups consisting of 3 mice each were treated orally with different doses of the compounds to be tested, then the test animals were placed in a Dews equipment. In this equipment the number of interruptions of infrared beam within 30 minutes was counted. […] [Borsy, J., Csanyi, E., Lazar, I.: Arch. Int.. Pharmacodyn. 124, 1 (1960)].

[4] = system: acetic acid writhing reactions; assay: Analgesic effect (acetic acid writhing, Newbould); type: in vivo, mouse (NMRI); settings: Mus musculus, 1 h; mice, 0.75% acetic acid one hour after treatment; read-out: Analgesic effect ID50
Procedure: The characteristic "writhing reactions" were counted for a period of 5 minutes, starting from the fifth minute after challenge. […] Each group of animals consisted of at least 10 mice. […]

shocks tolerated = assay: Anxiolytic effect (Vogel et al.); type: in vivo, rat (male Wistar); settings: ip, 2 h; rat, intraperitoneal, two hours before testing; read-out: Anxiolytic effect MED
Procedure: The anxiolytic effect was tested by using the method of Vogel et al. Male Wistar rats of 160-180 g bodyweight were kept free of food and drinking water for 24 and 48 hours, respectively. Test and carrier substances were administered intraperitoneally two hours before testing. Animals within the experimental chamber were provided with drinking water through an inserted tube. After the animals' each twenty lapping for water the device emitted a 2 mA intensity electric shock through the drinking tube. During 5 minutes the shocks tolerated by the animals in order to quench their thirst were counted. The effect of treatment was expressed as the % increase of the tolerated shocks. The minimum effective dose (MED) was determined for each test compound [Voqel, J. R., Beer, B., Clody, D. E.: Psychopharmacologia (Berl.) 21, 1 (1971)].

CCN(CC)CCON=C1CCc2c1ccc1ccccc21 [Example 3, 3-[2-(N,N-Diethylamino)-ethoxyimino]-2,3-dihydro-1H-benz[e]indene]
LD50 at 168 h [1]: 640 mg/kg
ED50 (pentetrazole spasm): 96 mg/kg
ED50 (nicotine spasm): 29 mg/kg

c1ccc2c3c(ccc2c1)C(=NOCCN1CCOCC1)CC3 [Example 11, 3-[2-(N-Morpholinoethoxyimino)]-2,3-dihydro-1H-benz[e]indene]
LD50 at 168 h [1]: > 1000 mg/kg
ED50 (pentetrazole spasm): 84 mg/kg
inhibition in vivo at 2 mg/kg [2]: 54%

CN(C)CCCN1c2ccccc2Sc2ccc(Cl)cc21 [Chlorpromazine, reference compound]
LD50 at 168 h [1]: 315 mg/kg
ED50 ([3]; Rattus norvegicus): 13.2 mg/kg
Therapeutic index (Catalepsy MED / Conditioned Reflex ID50) (catalepsy): 1.5
Catalepsy MED (catalepsy): 20 mg/kg

CCN(CC)CC(=O)Nc1c(C)cccc1C [Lidocain, reference compound]
Local analgesic effect EC50 (nervus ischiadicus): 0.19%

CN(C)CCON=C1CCc2c1ccc1ccccc21 [Example 1, 3-[2-(N,N-Dimethylamino)-ethoxyimino]-2,3-dihydro-1H-benz[e]indene]
LD50 at 168 h [1]: 820 mg/kg
effect observed in the given dose, hexobarbital narcosis potentiation (hexobarbital narcosis; dose 200 mg/kg): 100%

c1ccc2c3c(ccc2c1)C(=NOCCN1CCCCC1)CC3 [Example 8, 3-[2-(N-Piperidinyl)-ethoxyimlno]-2,3-dihydro-1H-benz[e]indene]
LD50 at 168 h [1]: > 1000 mg/kg
effect observed in the given dose, hexobarbital narcosis potentiation (hexobarbital narcosis; dose 100 mg/kg): 67%
inhibition in vivo at 2 mg/kg [2]: 56%

c1ccc2c3c(ccc2c1)C(=NOCCCN1CCCCC1)CC3 [Example 9, 3-[3-(N-Piperidinyl)-propoxyimino]-2,3-dihydro-1H-benz[e]indene]
LD50 at 168 h [1]: 320 mg/kg
Local analgesic effect EC50 (nervus ischiadicus): 0.20%

CC(C)N(CCON=C1CCc2c1ccc1ccccc21)C(C)C [Example 4, 3-[2-(N-1-Methylethyl-2-propylamino)-ethoxyimino]-2,3-dihydro-1H-benz[e]indene]
LD50 at 168 h [1]: 600 mg/kg
ED50 (nicotine spasm): 4 mg/kg
inhibition in vivo at 2 mg/kg [2]: 100%
ED50 [2]: 0.19 mg/kg
Local analgesic effect EC50 (nervus ischiadicus): 0.18%

COc1ccccc1N1CCN(CC(O)CON=C2CCc3c2ccc2ccccc32)CC1 (stereo not drawn) [Example 19, 3-{3-[4-(2-Methoxyphenyl)-1-piperazinyl]-2-hydroxypropoxyimino}-2,3-dihydro-1H-benz[e]indene]
LD50 at 168 h [1]: > 1000 mg/kg
ED50 (hexobarbital narcosis): 67 mg/kg
ED50 (spontaneous motility): 43 mg/kg
ED50 [4]: 65 mg/kg

CN1C(=O)OC(C)(C)C1=O [Trimethadione, reference compound]
ED50 (pentetrazole spasm): 400 mg/kg

O=C(NC1CCCCC1)ON=C1CCc2c1ccc1ccccc21 [Example 22, 3-(O-Cyclohexylcarbamoyl)-oxime-2,3-dihydro-1H-benz[e]indene]
LD50 at 168 h [1]: > 1000 mg/kg
inhibition in vivo at 2 mg/kg [2]: 59%

CSc1ccc2c(c1)N(CCC1CCCCN1C)c1ccccc1S2 (stereo not drawn) [Thioridazine]
ED50 ([3]; rat, dosing one hour before measurement): 108 mg/kg
Therapeutic index (Catalepsy MED / Conditioned Reflex ID50) (catalepsy): 0.7
Catalepsy MED (catalepsy): 80 mg/kg

CCCC(C)(COC(N)=O)COC(N)=O [Meprobamate, reference compound]
LD50 at 168 h [1]: 1350 mg/kg
ED50 (hexobarbital narcosis): 260 mg/kg
ED50 (spontaneous motility): 232 mg/kg
minimal effective dose (shocks tolerated): 25 mg/kg

CC(Cc1ccccc1)NCCC(c1ccccc1)c1ccccc1 (stereo not drawn) [Prenylamine, reference compound]
inhibition in vivo at 2 mg/kg [2]: 41%
ED50 [2]: 6.6 mg/kg

c1ccc2c3c(ccc2c1)C(=NOCCN1CCCC1)CC3 [Example 7, 3-[2-(N-Pyrpolidinyl)-ethoxyimino]-2,3-dihydro-1H-benz[e]indene]
LD50 at 168 h [1]: 700 mg/kg
Local analgesic effect EC50 (nervus ischiadicus): 0.20%

CNC1=Nc2ccc(Cl)cc2C(c2ccccc2)=[N+]([O-])C1 [Chlordiazepoxide, reference compound]
LD50 at 168 h [1]: 650 mg/kg
minimal effective dose (shocks tolerated): 2.5 mg/kg

OCCN1CCN(CC(O)CON=C2CCc3c2ccc2ccccc32)CC1 (stereo not drawn) [Example 18, 3-{3-[4-(2-Hydroxyethyl)-1-piperazinyl]-2-hydroxypropoxyimino}-2,3-dihydro-1H-benz[e]indene]
LD50 at 168 h [1]: > 1000 mg/kg
inhibition in vivo at 2 mg/kg [2]: 59%

Clc1cccc(N2CCN(CCCON=C3CCc4c3ccc3ccccc43)CC2)c1 [Example 12, 3-{3-[4-(3-Chlorophenyl)-1-piperazinyl]-propoxyimino}-2,3-dihydro-1H-benz[e]indene]
LD50 at 168 h [1]: > 1000 mg/kg
effect observed in the given dose, hexobarbital narcosis potentiation (hexobarbital narcosis; dose 200 mg/kg): 83%
ED50 (spontaneous motility): ~100 mg/kg
ED50 (pentetrazole spasm): 30 mg/kg
inhibition in vivo at 2 mg/kg [2]: 56%

OC(CCN1CCCCC1)(c1ccccc1)C1CCCCC1 (stereo not drawn) [Trihexyphenidyl, reference compound]
ED50 (nicotine spasm): 20 mg/kg
